From patent EP1958941A1, “Oxazolidinones and their use as hypocholesterolemic agents” (Lipideon Biotechnology AG, priority 2007, dated 2008)

test system: rabbit brush border membrane vesicles (BBMV); test: inhibition of cholesterol uptake in rabbit brush border membrane vesicles (scavenger receptor-mediated uptake of radiolabelled cholesterol ester from donor particles); format: biochemical; details: inhibition of uptake of radiolabelled cholesterol ester from loaded donor particles into the BBMV bilayer; test concentration not given
Procedure: Chem. Int. Ed. 2004, 43, 4653-4656; Kvaerno, L. et. al. Org. Lett. 2005, 7, 1145-1148, van Bennekum, A. et. al. Biochemistry 2005, 44, 4517-4525).
The compounds of the invention (commercially obtained or prepared according to Wu, G. Z. et al., J. Org. Chem. 1999, 64, 3714-3718) together with the glucuronide (the metabolite of ezetimibe, prepared according to Vaccaro and Davis, Bioorg. Med. Chem. Lett. 1998, 8, 313-318) as appropriate reference compounds were evaluated by well-established methods to determine their inhibition of cholesterol uptake in rabbit brush border membrane vesicles (BBMV) (Table 1). Briefly, the scavenger receptor-mediated uptake of radiolabelled cholesterol ester from the loaded donor particles into the BBMV bilayer was measured in the presence of various compounds of the invention and appropriate reference compounds (Kvaerno, L. et al, Angew. Chem. Int. Ed. 2004, 43, 4653-4656; Kvaerno, L. et al, Org. Lett. 2005, 7, 1145-1148).

Compound	CAI (%) Inhibition
O=C(NCCN1CCOCC1)c1ccc(N2C(=O)O[C@H](CO)[C@H]2c2ccc(O)cc2)cc1 [Compound 37, 4-((4R,5S)-5-(hydroxymethyl)-4-(4-hydroxy-phenyl)-2-oxooxazolidin-3-yl)-N-(2-morpholinoethyl)-benzamide]	21 ± 3%
O=C(NCCN1CCOCC1)c1ccc(N2C(=O)O[C@H](CO)[C@H]2c2ccc(OCc3ccccc3)cc2)cc1 [Compound 36, 4-((4R,5S)-4-(4-(benzyloxy)phenyl)-5-(hydroxymethyl)-2-oxooxazolidin-3-yl)-N-(2-morpholinoethyl)-benzamide]	33 ± 2%
CCCNC(=O)c1ccc(N2C(=O)O[C@H](CO)[C@H]2c2ccc(O)cc2)cc1 [Compound 15, 4-((4R,5S)-5-(hydroxymethyl)-4-(4-hydroxyphenyl)-2-oxooxazolidin-3-yl)-N-propylbenzamide]	15 ± 4%
C[N+](C)(C)CCNC(=O)c1ccc(N2C(=O)O[C@H](CO)[C@H]2c2ccc(OCc3ccccc3)cc2)cc1 [Compound 34, ((4R,5S)-4-(4-(benzyloxy)phenyl)-5-(hydroxy-methyl)-2-oxooxazolidin-3-yl)-N-(2-(trimethylamonium-iodide)ethyl)benzamide]	29 ± 3%
C[N+]1(CCNC(=O)c2ccc(N3C(=O)O[C@H](CO)[C@H]3c3ccc(OCc4ccccc4)cc3)cc2)CCOCC1.[I-] [Compound 38, 4-(2-(4-((4R,5S)-4-(4-(benzyloxy)phenyl)-5-(hydroxymethyl)-2-oxooxazolidin-3-yl)benzamido)ethyl)-4-methylmorpholin-4-ium iodide]	24 ± 2%
O=C1O[C@H](Cn2nncc2-c2ccc(F)cc2)[C@@H](c2ccc(O)cc2)N1c1ccc(F)cc1 [Compound 30, (4R,5R)-3-(4-fluorophenyl)-5-((5-(4-fluorophenyl)-1H-1,2,3-triazol-1-yl)methyl)-4-(4-hydroxyphenyl)oxazolidin-2-one]	16 ± 1%
O=C1[C@H](CC[C@H](O)c2ccc(F)cc2)[C@@H](c2ccc(O)cc2)N1c1ccc(F)cc1 [Ezetimibe, reference compound]	15 ± 4%
CN(C)CCNC(=O)c1ccc(N2C(=O)O[C@H](CO)[C@H]2c2ccc(O)cc2)cc1 [Compound 33, N-(2-(dimethylamino)ethyl)-4-((4R,5S)-5-(hydroxymethyl)-4-(4-hydroxyphenyl)-2-oxooxazolidin-3-yl)-benzamide]	16 ± 2%
C[N+](C)(C)CCNC(=O)c1ccc(N2C(=O)O[C@H](CO)[C@H]2c2ccc(O)cc2)cc1 [Compound 35, ((4R,5S)-4-(4-hydroxyphenyl)-5-(hydroxymethyl)-2-oxooxazolidin-3-yl)-N-(2-(trimethylamoniumbromide)ethyl)-benzamide]	20 ± 1%
O=C1O[C@H](Cn2nncc2-c2ccccc2)[C@@H](c2ccc(O)cc2)N1c1ccc(F)cc1 [Compound 29, (4R, 5R)-3-(4-fluorophenyl)-4-(4-hydroxyphenyl)-5-((5-phenyl-1H-1,2,3-triazol-1-yl)methyl)oxazolidin-2-one]	15 ± 1%
